# According to PubChem BioAssay (NCI):
#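 Following 48 hours of exposure in 96-well plates, responses at five concentrations were used to interpolate endpoints linearly. GI50 = concentration required for 50% inhibition of growth. TGI: total growth inhibition.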
# Experiments:
# Test in all cases: NCI-60 cell line screen, 48 h
# NCI/ADR-RES ovarian = tested on: NCI/ADR-RES ovarian
# RXF 393 renal = tested on: RXF 393 renal
# UO-31 renal = tested on: UO-31 renal
# MOLT-4 leukemia = tested on: MOLT-4 leukemia
# HL-60(TB) leukemia = tested on: HL-60(TB) leukemia
# SNB-19 CNS = tested on: SNB-19 CNS
# M14 melanoma = tested on: M14 melanoma
# K-562 leukemia = tested on: K-562 leukemia
# NCI-H226 lung = tested on: NCI-H226 lung
smiles,measurement,setting,value
S=C(S)NCNC(=S)S.[Zn+2],TGI,NCI/ADR-RES ovarian,> 100 µM
same,TGI,RXF 393 renal,> 100 µM
same,TGI,UO-31 renal,> 100 µM
same,TGI,MOLT-4 leukemia,> 100 µM
same,TGI,HL-60(TB) leukemia,> 100 µM
same,TGI,SNB-19 CNS,> 100 µM
same,TGI,M14 melanoma,> 100 µM
same,TGI,K-562 leukemia,> 100 µM
Cn1c(=O)n(C2(C)C[Se]C2)c2ccccc21,TGI,RXF 393 renal,> 100 µM
same,TGI,UO-31 renal,> 100 µM
same,TGI,MOLT-4 leukemia,> 100 µM
same,TGI,HL-60(TB) leukemia,> 100 µM
same,TGI,SNB-19 CNS,> 100 µM
same,TGI,M14 melanoma,> 100 µM
same,TGI,K-562 leukemia,> 100 µM
same,TGI,NCI-H226 lung,> 100 µM
O=C(Cn1c[n+](CC(=O)c2ccc(-c3ccccc3)cc2)c2ccccc21)Nc1cccc2cccnc12,GI50,NCI/ADR-RES ovarian,18.7 µM
same,TGI,NCI/ADR-RES ovarian,64.8 µM
same,GI50,UO-31 renal,14.2 µM
same,TGI,UO-31 renal,33.3 µM
same,GI50,K-562 leukemia,0.639 µM
same,TGI,K-562 leukemia,> 100 µM
same,GI50,NCI-H226 lung,2.02 µM
same,TGI,NCI-H226 lung,7.33 µM
N#Cc1c2ccccc2cn1-c1ccc(F)cc1,TGI,UO-31 renal,39.6 µM
same,TGI,MOLT-4 leukemia,90.5 µM
same,TGI,HL-60(TB) leukemia,24.2 µM
same,TGI,SNB-19 CNS,> 100 µM
same,TGI,M14 melanoma,> 100 µM
same,TGI,K-562 leukemia,> 100 µM
same,TGI,NCI-H226 lung,55.6 µM
Cc1nc2c(nc1C)-c1[nH]c3c(c1C(=O)C2=O)CCCC3=O,TGI,NCI/ADR-RES ovarian,6.47 µM
same,TGI,RXF 393 renal,2.41 µM
same,TGI,UO-31 renal,10.3 µM
same,TGI,MOLT-4 leukemia,5.67 µM
same,TGI,HL-60(TB) leukemia,5.78 µM
same,TGI,SNB-19 CNS,5.58 µM
same,TGI,M14 melanoma,3.4 µM
same,TGI,K-562 leukemia,5.59 µM
same,TGI,NCI-H226 lung,3.04 µM
Cc1ccc(-n2c(N)c(C#N)c3[nH]nc(N)c3c2=O)cc1,TGI,NCI/ADR-RES ovarian,> 100 µM
same,TGI,RXF 393 renal,> 100 µM
same,TGI,UO-31 renal,> 100 µM
same,TGI,MOLT-4 leukemia,> 100 µM
same,TGI,HL-60(TB) leukemia,> 100 µM
same,TGI,SNB-19 CNS,> 100 µM
same,TGI,M14 melanoma,> 100 µM
same,TGI,K-562 leukemia,> 100 µM
same,TGI,NCI-H226 lung,> 100 µM
CC(=O)Oc1ccc2c(C)cc(=O)oc2c1OC(C)=O,TGI,NCI/ADR-RES ovarian,78.6 µM
same,TGI,UO-31 renal,76.9 µM
same,TGI,MOLT-4 leukemia,> 100 µM
same,TGI,SNB-19 CNS,> 100 µM
same,TGI,M14 melanoma,> 100 µM
same,TGI,K-562 leukemia,> 100 µM
same,TGI,NCI-H226 lung,> 100 µM
O=C(Nc1nc(C23CC4CC(CC(C4)C2)C3)cs1)c1cc2ccc(O)cc2oc1=O,TGI,NCI/ADR-RES ovarian,48.5 µM
same,TGI,RXF 393 renal,51.2 µM
same,TGI,UO-31 renal,31.2 µM
same,TGI,MOLT-4 leukemia,38.1 µM
same,TGI,HL-60(TB) leukemia,34.6 µM
same,TGI,SNB-19 CNS,80.6 µM
same,TGI,K-562 leukemia,68.2 µM
same,TGI,NCI-H226 lung,49 µM
C=C(C)[C@@H]1CC[C@]2(C(=O)NC3CCCCC3)CC[C@]3(C)[C@H](CC[C@@H]4[C@@]5(C)CCCNC(C)(C)[C@@H]5CC[C@]43C)[C@@H]12,GI50,UO-31 renal,1.42 µM
same,TGI,UO-31 renal,2.73 µM
same,GI50,HL-60(TB) leukemia,2.12 µM
same,TGI,HL-60(TB) leukemia,4.61 µM
same,GI50,SNB-19 CNS,5.51 µM
same,TGI,SNB-19 CNS,33.3 µM
same,GI50,NCI-H226 lung,4.83 µM
same,TGI,NCI-H226 lung,36.2 µM
CN(CC(=O)O)c1ncc2c(n1)CCCC2,TGI,NCI/ADR-RES ovarian,> 100 µM
same,TGI,RXF 393 renal,> 100 µM
same,TGI,UO-31 renal,> 100 µM
same,TGI,MOLT-4 leukemia,> 100 µM
same,TGI,HL-60(TB) leukemia,> 100 µM
same,TGI,SNB-19 CNS,> 100 µM
same,TGI,M14 melanoma,> 100 µM
same,TGI,K-562 leukemia,> 100 µM
same,TGI,NCI-H226 lung,> 100 µM
